Laboratory results: patent US7432360B2, “Multi-dose erythropoietin formulations” (Aventis Pharmaceuticals Inc., priority 2005, dated 2008)
Where two headings read alike, the source gives them in different places.

Legend:
[1] = Appearance of the solution when the preservative is used in the EPO formulation; assay type: physicochemical
Description: Multi-dose EPO-containing solutions were formulated as sterile, non-pyrogenic, colorless aqueous solutions in water for injection at 10,000 units and 20,000 units concentration. Solutions prepared contained a 20 mM phosphate buffer (sodium phosphate monobasic monohydrate, and sodium phosphate dibasic heptahydrate), 0.01% w/v polysorbate 20 as an antiadsorbent, 0.45-0.8% w/v sodium chloride (depending on the preservative system that was used, the amount of sodium chloride was adjusted to produce an Osmolality of approximately 300 mOsm/kg), and a preservative system.

[2] = Stability of EPO in preserved formulations, reverse phase HPLC assay (% label claim); assay type: physicochemical; conditions: in the presence of thimerosal
Description: Prototype batches were made using these selected preservatives and placed on stability at 5° C. and 25° C. Samples were tested by a reverse phase HPLC method.
Detection of the EPO protein was monitored at 210 nm.

[3] = system: indicator aerobic bacteria and molds; test: Preservative challenge test (USP and EP criteria); assay type: cell-based; conditions: in the EPO formulation
[4] = pH>3; cited from earlier work
[5] = preservative in EPO formulation (phosphate buffer, polysorbate 20, sodium chloride, pH approx. 7.0)

In the case of COC(=O)c1ccc(O)cc1 [Methyl paraben], the appearance of solution [1, 5] is reported as “hazy to cloudy”.

With C[CH2][Hg][S]c1ccccc1C(=O)[O-].[Na+] [Thimerosal] the “chemical stability of the EPO formulation” value [2] was “good chemical stability”, the preservative efficacy [3] was “good preservative efficacy” and the appearance of solution [1, 5] was “clear”.

In the case of CC(C)(O)C(Cl)(Cl)Cl [chlorobutanol], the stability of chlorobutanol [4] is given as “not stable”.

With Cc1cccc(O)c1 [m-cresol] the appearance of solution [1, 5] was “hazy to cloudy”.

With Oc1ccccc1 [phenol] the appearance of solution [1] was “hazy to cloudy”.

With O=[N+]([O-])[O-].[Hg+][c]1ccccc1 [phenyl mercuric nitrate] the appearance of solution [1, 5] was “cloudy”.

With CCCOC(=O)c1ccc(O)cc1 [propyl paraben] the appearance of solution [1, 5] was “hazy to cloudy”.
